According to ChEMBL document CHEMBL1201862, “PubChem BioAssay data set” (2004):
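Five concentrations, 48 hours, 96-well plates. Abbreviation: GI50, concentration required for 50% inhibition of growth.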 The source made the active and inactive calls. Cut-off read from the data, not from the text of the source: active = GI50 up to about 1.1 µM and inactive = higher.

How the values were obtained:
Assay in all cases: inhibition of tumour cell growth, NCI panel, 48 h
[1] = system: TK-10
[2] = system: NCI-H23
[3] = system: SF-539
[4] = system: Malme-3M
[5] = system: SK-OV-3
[6] = system: CAKI-1
[7] = system: RXF 393
[8] = system: HT-29
[9] = system: EKVX
[10] = system: KM12
[11] = system: CCRF-CEM
[12] = system: NCI-H460
[13] = system: COLO 205
[14] = system: OVCAR-5
[15] = system: HOP-62
[16] = system: K562
[17] = system: LOX IMVI

Measured: GI50

CC(=O)O[C@H]1CC[C@@]2(C)C(=CC[C@@H]3C2CC[C@]2(C)Nc4nc5ccccc5cc4CC32)C1 (some centres not stated)
inactive: [1] 5.31 µM | [2] 12.4 µM | [3] 3.78 µM | [4] 6.55 µM | [5] 2.82 µM | [6] 4.28 µM | [7] 2.07 µM | [8] 1.82 µM | [9] 5.74 µM | [10] 3.88 µM | [11] 3.54 µM | [12] 4.57 µM | [13] 7.66 µM | [14] 13.9 µM | [15] 13.3 µM | [16] 3.21 µM

Cc1ccc(S(=O)(=O)N/N=C/c2oc(-c3ccncc3)c(-c3ccncc3)c2[N+](=O)[O-])cc1
inactive: [1] > 100 µM | [2] > 100 µM | [3] > 100 µM | [4] > 100 µM | [5] > 100 µM | [6] > 100 µM | [7] > 100 µM | [8] > 100 µM | [9] > 100 µM | [10] > 100 µM | [11] > 100 µM | [12] > 100 µM | [13] > 100 µM | [14] > 100 µM | [17] > 100 µM | [15] > 100 µM | [16] > 100 µM

Cc1[nH]c2ccccc2c1C1CC(=O)NC1=O (configuration not stated)
inactive: [1] > 100 µM | [2] > 100 µM | [3] > 100 µM | [4] > 100 µM | [5] > 100 µM | [6] > 100 µM | [7] > 100 µM | [8] > 10 µM | [9] > 100 µM | [10] > 100 µM | [11] > 100 µM | [12] > 100 µM | [14] > 100 µM | [15] > 100 µM | [16] > 100 µM

CCOc1ccccc1NC(=O)C(=O)c1c(O)c2ccc(O)cc2oc1=O
inactive: [1] > 100 µM | [2] > 100 µM | [3] > 100 µM | [4] > 100 µM | [5] > 100 µM | [6] > 100 µM | [7] > 100 µM | [8] > 100 µM | [9] > 100 µM | [10] > 100 µM | [11] > 100 µM | [12] > 100 µM | [13] > 100 µM | [14] > 100 µM | [17] > 100 µM | [15] > 100 µM | [16] > 100 µM

C/C(=C\c1ccccc1)C(O)S(=O)(=O)O (configuration not stated)
inactive: [1] > 100 µM | [2] > 100 µM | [4] > 100 µM | [5] > 100 µM | [6] > 100 µM | [7] > 100 µM | [8] > 100 µM | [9] > 100 µM | [10] > 100 µM | [11] > 100 µM | [12] > 100 µM | [13] > 100 µM | [14] > 100 µM | [17] > 100 µM | [15] > 100 µM | [16] > 100 µM

O=C1c2nn(-c3ccccc3)nc2C(c2ccccc2)N1c1ccccc1 (configuration not stated)
inactive: [2] > 100 µM | [3] 59.8 µM | [4] > 100 µM | [6] > 100 µM | [8] > 100 µM | [9] > 100 µM | [10] > 100 µM | [11] > 100 µM | [12] > 100 µM | [13] > 100 µM | [14] > 100 µM | [17] > 100 µM | [15] 28.3 µM | [16] > 100 µM

CC(=O)Nc1ccc(-c2nnc(SCC(=O)Nc3ccc(Cl)cc3)o2)cc1
inactive: [1] 18.4 µM | [2] 3.39 µM | [3] 16 µM | [4] 13.6 µM | [5] 16.4 µM | [6] 18 µM | [7] 10 µM | [8] 10.6 µM | [9] 21 µM | [10] 13.7 µM | [11] 3.5 µM | [12] 10 µM | [13] 17.6 µM | [14] 16.4 µM | [17] 5.33 µM | [15] 22.4 µM | [16] 5.83 µM
